The test system of assay [1] is Human IL-8 secretion, Normal Human Epidermal Keratinocytes (NHEK). As to the kind of experiment: Human IL-8 production in UVB-irradiated NHEK (ELISA). Type of assay: cell-based. Particulars: Table 10, 0.20%; for Human IL-8 Content, Average: 40 mJ/cm2 UVB; for Human IL-8 Content, Entry 2: passage 2 + 4, 40 mJ/cm2 UVB; for Human IL-8 Content, Entry 3: passage 2 + 5, 40 mJ/cm2 UVB; for Human IL-8 Content, Entry 4: passage 2 + 6, 40 mJ/cm2 UVB; for Human IL-8 Content, Entry 1: passage 2 + 3, 40 mJ/cm2 UVB. The protocol:
(§1) Normal Human Epidermal Keratinocytes (NHEK) (PromoCell No. C-12008);
(§2) Positive Control: 40 mJ/cm^2 UVB,
(§3) Negative Control: No UVB irradiation;
(§4) a. Rinse the confluent NHEK cells with sterile D-PBS then trypsinize all cells and perform cell counting.
(§5) b. Dilute the cell density to 4˜8E+04/mL and seed 0.5 mL cell liquid (equals to 2˜4E+04 cells) each well in 24 well plate.
(§6) c. Incubate NHEK cells at 37° C., 5% CO2 until subconfluence.
(§7) d. Prepared dosing solution of testing material in Complete Medium: 0.4%, 0.2%, 0.1%, 0.05%.
(§8) e. Rinse the NHEK cells with sterile D-PBS and discard rinse buffer. Add 400 μL of controls and testing materials in different concentrations into NHEK cells in 24 well plates.
(§9) f. Pre-incubate NHEK cells with testing material at 37° C., 5% CO2 for about 6 hours.
(§10) g. After pre-incubating for about 6 hours, wash the NHEK cells with sterile D-PBS for twice then add […] sterile D-PBS for UVB irradiation.
(§11) h. UVB intensity is about 2300 μW/cm^2 and UVB energy is about 40 mJ/cm^2.
(§12) i. After UVB irradiation, discard sterile D-PBS and wash again. Add 400 μL of the same dosing solution in to each wells.
(§13) j. Post-incubate at 37° C., 5% CO2 for about 18 hours.
(§14) k. After post-incubating for 18 hours, collect the supernatant of controls and testing materials.
(§15) l. Determine the IL-6/IL-8 content of the supernatant by R&D ELISA kit as mentioned previously.
(§16) Normal Human Epidermal Keratinocytes (NHEK) were treated by the above-mentioned glycine derivatives for evaluating their anti-inflammatory effect on keratinocytes in this example.

Assay [2] relates to Human IL-6 secretion, Normal Human Epidermal Keratinocytes (NHEK). The assay can be described thus: Human IL-6 production in UVB-irradiated NHEK (ELISA). Type of assay: cell-based. The conditions noted are these: Table 9, 0.20%, Positive Control 100%; for Human IL-6 Content, Average: 40 mJ/cm^2 UVB; for Human IL-6 Content, Entry 1: passage 2 + 2, 40 mJ/cm^2 UVB; for Human IL-6 Content, Entry 2 / Human IL-6 Content, Entry 3: passage 2 + 3, 40 mJ/cm^2 UVB. As to the method: as §1, §2, §3, §4, §5, §6, §7, §8, §9, §10, §11, §12, §13, §14, §15, §16
Background: In an ELISA, binding on a coated surface is turned into a signal by an enzyme label.

SMILES strings stand for the structures. Square brackets hold non-standard residues; d marks the D form. Peptide text beside a SMILES is read from it. Sar = CNCC(=O)O

On to `CC(=O)NCC(=O)NCC(=O)O` [Ac-Gly-Gly, (2-acetylamino-acetylamino)-acetic acid], for which, in assay [1], the “Human IL-8 Content, Average” value is listed as 59%; the “Human IL-8 Content, Entry 2” value was determined as 68%; the “Human IL-8 Content, Entry 3” value amounted to 54%; the “Human IL-8 Content, Entry 4” value came out at 53%. Besides, in assay [2], the “Human IL-6 Content, Average” value is listed as 20%; the “Human IL-6 Content, Entry 1” value turned out to be 12%; the “Human IL-6 Content, Entry 2” value came to 16%; the “Human IL-6 Content, Entry 3” value is reported as 33%.

In the case of `CC(=O)NCC(=O)NCCCC(=O)O` [Ac-Gly-GABA, 4-(2-Acetylamino-acetylamino)-butyric acid], in assay [1], the “Human IL-8 Content, Average” value came out at 70%; the “Human IL-8 Content, Entry 1” value is listed as 59%; the “Human IL-8 Content, Entry 2” value worked out at 70%; the “Human IL-8 Content, Entry 3” value was 64%. Also, the “Human IL-8 Content, Entry 4” value in assay [1] was 87%. For the same molecule, in assay [2], the “Human IL-6 Content, Average” value was 14%; the “Human IL-6 Content, Entry 1” value came to 11%; the “Human IL-6 Content, Entry 2” value is 25%; the “Human IL-6 Content, Entry 3” value worked out at 6%.

For the molecule `CC(=O)NCC(=O)N(C)CC(=O)O` [Ac-Gly-Sar, [(2-Acetylamino-acetyl)-methyl-amino]-acetic acid] (Ac-Gly-[Sar]-OH), in assay [1], the “Human IL-8 Content, Average” value was 76%; the “Human IL-8 Content, Entry 1” value is reported as 73%; the “Human IL-8 Content, Entry 2” value is 70%; the “Human IL-8 Content, Entry 3” value was 74%. The “Human IL-8 Content, Entry 4” value in assay [1] is 88%. In assay [2], the “Human IL-6 Content, Average” value came out at 14%; the “Human IL-6 Content, Entry 1” value is recorded as 14%; the “Human IL-6 Content, Entry 2” value is recorded as 21%; the “Human IL-6 Content, Entry 3” value is on record as 7%.
